Results published in PubChem BioAssay (NCI).
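Results reflect a 48-hour exposure of cells in 96-well plates to compound at five concentrations. Here, GI50 denotes the concentration required for 50% inhibition of growth. TGI: concentration producing complete growth inhibition.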

Legend:
Test in all cases: DTP human tumour cell line panel, 48 h
MOLT-4 leukemia = tested on: MOLT-4 leukemia
SK-OV-3 ovarian = tested on: SK-OV-3 ovarian
786-0 renal = tested on: 786-0 renal
NCI-H226 lung = tested on: NCI-H226 lung
NCI-H23 lung = tested on: NCI-H23 lung
OVCAR-3 ovarian = tested on: OVCAR-3 ovarian
SK-MEL-5 melanoma = tested on: SK-MEL-5 melanoma
OVCAR-8 ovarian = tested on: OVCAR-8 ovarian
SF-268 CNS = tested on: SF-268 CNS
RXF 393 renal = tested on: RXF 393 renal

Structure (SMILES)	TGI (MOLT-4 leukemia)	TGI (SK-OV-3 ovarian)	TGI (786-0 renal)	TGI (NCI-H226 lung)	TGI (NCI-H23 lung)	TGI (OVCAR-3 ovarian)	TGI (SK-MEL-5 melanoma)	TGI (OVCAR-8 ovarian)	TGI (SF-268 CNS)	TGI (RXF 393 renal)	GI50 (MOLT-4 leukemia)	GI50 (SK-OV-3 ovarian)	GI50 (NCI-H226 lung)	GI50 (NCI-H23 lung)	GI50 (OVCAR-3 ovarian)	GI50 (SK-MEL-5 melanoma)	GI50 (OVCAR-8 ovarian)	GI50 (SF-268 CNS)	GI50 (RXF 393 renal)
COc1ccc(NC(=O)CC(=O)N2N=C(C)C(N=Nc3ccc(S(=O)(=O)c4ccc(N=NC5C(=O)N(C(=O)CC(=O)Nc6ccc(OC)cc6)N=C5C)cc4)cc3)C2=O)cc1 (centres undefined)	> 100 µM	> 100 µM	> 100 µM	> 100 µM	> 100 µM	> 100 µM	> 100 µM	> 100 µM	> 100 µM	> 100 µM	–	–	–	–	–	–	–	–	–
CN(CCO)c1nc2c(c(=O)[nH]1)CCC2	> 100 µM	> 100 µM	> 100 µM	> 100 µM	> 100 µM	> 100 µM	> 100 µM	> 100 µM	> 100 µM	> 100 µM	–	–	–	–	–	–	–	–	–
[N-]=[N+]=Nc1c(-c2ccccc2)c(Cl)nc2ccccc12	> 100 µM	> 100 µM	> 100 µM	> 100 µM	> 100 µM	> 100 µM	34.5 µM	> 100 µM	> 100 µM	> 100 µM	–	–	–	–	–	–	–	–	–
C1=NCCNCCN=Cc2ccc(cc2)OCc2cccc(n2)COc2ccc1cc2	> 100 µM	> 100 µM	> 100 µM	> 100 µM	> 100 µM	> 100 µM	> 100 µM	> 100 µM	83.9 µM	> 100 µM	–	–	–	–	–	–	–	–	–
CC1CC[C@@H](C(C)C)[C@H](Oc2nnc(C3OC(CO)C(O)C3O)o2)C1 (some centres undefined)	> 100 µM	> 100 µM	> 100 µM	> 100 µM	> 100 µM	> 100 µM	> 100 µM	> 100 µM	> 100 µM	> 100 µM	–	–	–	–	–	–	–	–	–
O=C(O[C@H]1[C@@H](O)[C@H](n2cnc3c(Cl)ncnc32)O[C@@H]1COC(c1ccccc1)(c1ccccc1)c1ccccc1)c1ccccc1	17.9 µM	> 100 µM	58.1 µM	> 100 µM	> 100 µM	35 µM	31.8 µM	> 100 µM	61.3 µM	48.1 µM	–	–	–	–	–	–	–	–	–
Cc1ccccc1N=Nc1ccc(N=Nc2c(O)ccc3ccccc23)c(C)c1	> 100 µM	> 100 µM	> 100 µM	> 100 µM	> 100 µM	> 100 µM	> 100 µM	> 100 µM	> 100 µM	> 100 µM	–	–	–	–	–	–	–	–	–
C[C@@H]1CC[C@H]2C(COCCOCC3=C(C(F)(F)F)O[C@@H]4O[C@@]5(C)CC[C@H]6[C@H](C)CC[C@@H]3[C@@]46OO5)=C(C(F)(F)F)O[C@@H]3O[C@@]4(C)CC[C@@H]1[C@]32OO4	> 100 µM	> 100 µM	> 100 µM	> 100 µM	> 100 µM	> 8.24 µM	> 100 µM	> 100 µM	> 100 µM	> 100 µM	< 0.0349 µM	> 31.5 µM	0.102 µM	0.535 µM	0.134 µM	0.176 µM	< 0.0261 µM	0.0602 µM	> 100 µM
CCCCCC/C=C\CCCCCCCCCc1cccc(O)c1C(=O)O	> 100 µM	> 100 µM	> 100 µM	> 100 µM	> 100 µM	> 100 µM	> 100 µM	> 100 µM	> 100 µM	> 100 µM	–	–	–	–	–	–	–	–	–
CC(=O)OCC(OC(C)=O)C(OC(C)=O)C(C=NN(C(C)=O)S(=O)(=O)c1ccc(/C=C2\NC(=O)NC2=O)cc1)OC(C)=O (centres undefined)	> 100 µM	> 100 µM	> 100 µM	> 100 µM	> 100 µM	> 100 µM	> 100 µM	> 100 µM	> 100 µM	> 100 µM	–	–	–	–	–	–	–	–	–
COC(=O)[C@@H]1CN(C(=O)CCc2ccccc2)C(=O)N1C(=O)OCc1ccccc1	> 100 µM	> 100 µM	> 100 µM	> 100 µM	> 100 µM	> 100 µM	> 100 µM	> 100 µM	> 100 µM	> 100 µM	–	–	–	–	–	–	–	–	–
N#CC(C#N)=Cc1ccc2c(c1)OC(Cl)O2 (centres undefined)	> 100 µM	61.5 µM	35.2 µM	38.2 µM	> 100 µM	52.8 µM	35.1 µM	> 100 µM	66.4 µM	52.3 µM	–	–	–	–	–	–	–	–	–
CC1CCCc2c(C#N)c(N)nc(-c3ccc(Cl)cc3)c21 (centres undefined)	43.2 µM	> 100 µM	38.2 µM	43.3 µM	93.7 µM	44.4 µM	35.9 µM	> 100 µM	> 100 µM	21.5 µM	–	–	–	–	–	–	–	–	–
C#CCOCC12C=CC(O1)C1C(=O)N(C)C(=O)C12 (centres undefined)	> 100 µM	> 100 µM	> 100 µM	> 100 µM	> 100 µM	> 100 µM	> 100 µM	> 100 µM	> 100 µM	> 100 µM	–	–	–	–	–	–	–	–	–
CC1=C2C(=O)c3ccccc3C(=O)[C@H]2[C@H]2CCO[C@H]2O1	> 100 µM	> 100 µM	37.8 µM	> 100 µM	45.6 µM	36.5 µM	30.8 µM	45.2 µM	35.1 µM	31.3 µM	–	–	–	–	–	–	–	–	–
Cc1ccc(/C=N/Nc2cnccn2)s1	> 100 µM	> 100 µM	> 100 µM	> 100 µM	> 100 µM	> 100 µM	> 100 µM	> 100 µM	> 100 µM	> 100 µM	–	–	–	–	–	–	–	–	–
O=c1oc2ccccc2c2c(=O)c3ccc(OC/C(=N/O)c4ccc(Cl)cc4)cc3oc12	8.79 µM	24.3 µM	24.2 µM	36.2 µM	45.1 µM	10.9 µM	18.7 µM	65.1 µM	41.8 µM	8.06 µM	–	–	–	–	–	–	–	–	–
O=C1C2CC=CCC2C(=O)N1n1c(-c2ccccc2)n[nH]c1=O (centres undefined)	> 100 µM	> 100 µM	> 100 µM	> 100 µM	> 100 µM	> 100 µM	> 100 µM	> 100 µM	> 100 µM	> 100 µM	–	–	–	–	–	–	–	–	–
NC(N)=N/N=C/c1c(-c2ccccc2)nc2n1ccc1nc(-c3ccccc3)c(/C=N/N=C(N)N)n12	> 100 µM	> 100 µM	> 100 µM	> 100 µM	> 100 µM	> 100 µM	> 100 µM	> 100 µM	> 100 µM	> 100 µM	–	–	–	–	–	–	–	–	–
CN(C)CCCNC(=O)N/N=C/c1cccc([N+](=O)[O-])c1	> 100 µM	> 100 µM	> 100 µM	> 100 µM	> 100 µM	> 100 µM	> 100 µM	> 100 µM	> 100 µM	> 100 µM	–	–	–	–	–	–	–	–	–
C=CCOC(=O)/C(=C\c1ccc(OC)c(OC)c1)c1ccc(OC)c(OC)c1	49.5 µM	> 100 µM	> 100 µM	> 100 µM	> 100 µM	> 100 µM	> 100 µM	> 100 µM	> 100 µM	99.5 µM	–	–	–	–	–	–	–	–	–
O=c1oc2ccccc2cc1/C=N/N1C(=S)N(c2ccccc2)C(=Nc2ccccc2)C1=Nc1ccccc1	> 100 µM	> 100 µM	> 100 µM	> 100 µM	> 100 µM	> 100 µM	> 100 µM	> 100 µM	> 100 µM	> 100 µM	–	–	–	–	–	–	–	–	–
CC(=O)OC1C(O)COC(O[C@H]2CC[C@]34C[C@]35CC[C@]3(C)C([C@@]6(C)CC[C@@H](C(C)(C)O)O6)[C@@H](O)C[C@@]3(C)C5C[C@H](OC3OCC(O)C(O)C3O)[C@H]4C2(C)C)C1OC1OCC(O)C(O)C1O (some centres undefined)	> 100 µM	> 100 µM	> 100 µM	> 100 µM	> 100 µM	> 100 µM	> 100 µM	> 100 µM	> 100 µM	> 100 µM	–	–	–	–	–	–	–	–	–
CC1=NN(c2ccccc2)C(=O)/C1=C/c1ccc(O)cc1	> 100 µM	> 100 µM	> 100 µM	> 100 µM	> 100 µM	> 100 µM	> 100 µM	> 100 µM	> 100 µM	> 100 µM	–	–	–	–	–	–	–	–	–
Cc1n[nH]c(=O)c2cc(-c3ccccc3)[nH]c12	> 100 µM	> 100 µM	> 100 µM	> 100 µM	> 100 µM	> 100 µM	> 100 µM	> 100 µM	> 100 µM	> 100 µM	–	–	–	–	–	–	–	–	–
CCOC(=O)c1sc2c(c1OC(=O)c1cccs1)c(=O)n(-c1ccccc1)c(=S)n2-c1ccccc1	40 µM	42.9 µM	24.4 µM	48.7 µM	46.5 µM	60.6 µM	32 µM	44.9 µM	> 100 µM	89.8 µM	–	–	–	–	–	–	–	–	–
Cc1ccc(N2C(=O)C3c4[nH]c5ccccc5c4C4CCC(C(C)(C)C)CC4C3C2=O)cc1 (centres undefined)	9.2 µM	28.2 µM	14.8 µM	33.2 µM	32.4 µM	8.62 µM	36.4 µM	20.9 µM	18.9 µM	22.1 µM	–	–	–	–	–	–	–	–	–
CC(C)[C@@H]1NC(=O)[C@H]2N=C(O[C@@H]2C)[C@@H]2CCCN2C(=O)[C@H](Cc2ccccc2)NC(=O)[C@@H]2CSC(=N2)[C@@H](Cc2ccccc2)NC(=O)[C@@H]2CSC1=N2	> 50 µM	> 50 µM	> 50 µM	> 50 µM	> 50 µM	> 50 µM	> 50 µM	> 50 µM	> 50 µM	> 50 µM	–	–	–	–	–	–	–	–	–
